Usually IC50 stands for the concentration needed to halve the response being measured. A higher IC50 goes with weaker potency.

The record followed here is article PMC10059712, “Structure Elucidation of Two Intriguing Neo-Debromoaplysiatoxin Derivatives from Marine Cyanobacterium Lyngbya sp. Showing Strong Inhibition of Kv1.5 Potassium Channel and Differential Cytotoxicity” (Molecules, 2023).

The target of the experiment is T1, Kv1.5 K+ channel (Homo sapiens, UniProt P22460).
T1 construct: gene KCNA5; human Kv1.5 stably expressed in LTK cells (LTK-Kv1.5)
The experiment in a line: patch clamp of Kv1.[…] currents in LTK-Kv1.[…] cells. The class given is cell-based. A general note: Patch clamp records ionic current or voltage across a cell membrane.

T1 sequence (P22460 whole entry): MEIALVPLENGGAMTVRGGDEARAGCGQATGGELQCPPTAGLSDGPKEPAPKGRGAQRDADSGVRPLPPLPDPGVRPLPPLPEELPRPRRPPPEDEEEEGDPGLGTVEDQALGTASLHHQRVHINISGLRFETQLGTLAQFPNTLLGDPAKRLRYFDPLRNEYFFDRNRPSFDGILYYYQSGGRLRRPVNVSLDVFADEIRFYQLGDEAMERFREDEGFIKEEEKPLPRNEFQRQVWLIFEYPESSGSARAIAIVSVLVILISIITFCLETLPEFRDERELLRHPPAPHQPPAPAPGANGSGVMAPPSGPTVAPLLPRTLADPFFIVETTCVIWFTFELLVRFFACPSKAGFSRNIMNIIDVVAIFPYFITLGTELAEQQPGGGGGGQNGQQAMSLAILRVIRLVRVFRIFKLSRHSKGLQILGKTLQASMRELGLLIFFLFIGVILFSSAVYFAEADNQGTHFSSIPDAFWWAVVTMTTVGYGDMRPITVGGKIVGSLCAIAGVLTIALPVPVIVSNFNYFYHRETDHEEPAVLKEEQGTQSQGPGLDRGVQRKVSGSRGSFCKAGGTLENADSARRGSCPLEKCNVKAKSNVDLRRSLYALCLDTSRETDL

On to `CO[C@@H](CC[C@H](C)[C@H]1O[C@]23C[C@H](OC(=O)C[C@H]([C@@H](C)O)OC(=O)CC(=O)C(C)(CC2(C)C)OO3)[C@@H]1C)c1cccc(O)c1` [compound 2, neo-debromoaplysiatoxin J], for which inhibition was half-maximal at 1640 ± 150 nM (IC50).
The same measure for `CO[C@@H](CC[C@H](C)[C@H]1O[C@]2(O)[C@H]3[C@@H](OC(=O)C[C@]3(O)[C@H](C)CC2(C)C)[C@@H]1C)c1cccc(O)c1` [compound 1, neo-debromoaplysiatoxin I]: 2590 ± 370 nM.
